The nature of series [1]: AUC (infinity) in mouse. It is filed as ADME, organism-based. Set-up: time infinity. The conditions noted are these: plasma.
Series [2] is described as follows: Half life in mouse. It is filed as ADME, organism-based. The conditions noted are these: in vivo.

The AUC(0-inf) is total exposure, with the tail of the curve extrapolated. A low value points to low exposure. As a reminder, the half-life is the time needed for the level to fall by half in the phase considered.

Take `COc1cc2c(cc1-c1c(C)noc1C)ncc1[nH]c(=O)n([C@H](C)c3ccccn3)c12`: the AUC(0-inf) in series [1] amounted to 680 µM·h. The half-life in series [2] is 7.2 h.
For `CCNC(=O)C[C@@H]1N=C(c2ccc(Cl)cc2)c2cc(OC)ccc2-n2c(C)nnc21` [MOLIBRESIB] the same measures were 40 µM·h and 1.6 h.

The values above are taken from ChEMBL document CHEMBL2176866, “Progress in the development and application of small molecule inhibitors of bromodomain-acetyl-lysine interactions” (J Med Chem, 2012).
